Data: US20220135591A1, “HETEROCYCLIC COMPOUNDS AS INHIBITORS OF MONOACYLGLYCEROL LIPASE (MAGL)” (Hoffmann-La Roche Inc., priority 2019, published 2022)

Key:
[1] = target: T1, MAGL (recombinant wild-type) (Homo sapiens, UniProt Q99685); test: 4-NPA assay: MAGL inhibitory activity by hydrolysis of 4-nitrophenylacetate, absorbance at 405 nm; format: biochemical; conditions: 4-NPA assay (values without footnote [b])
T1 sequence (Q99685 1-303): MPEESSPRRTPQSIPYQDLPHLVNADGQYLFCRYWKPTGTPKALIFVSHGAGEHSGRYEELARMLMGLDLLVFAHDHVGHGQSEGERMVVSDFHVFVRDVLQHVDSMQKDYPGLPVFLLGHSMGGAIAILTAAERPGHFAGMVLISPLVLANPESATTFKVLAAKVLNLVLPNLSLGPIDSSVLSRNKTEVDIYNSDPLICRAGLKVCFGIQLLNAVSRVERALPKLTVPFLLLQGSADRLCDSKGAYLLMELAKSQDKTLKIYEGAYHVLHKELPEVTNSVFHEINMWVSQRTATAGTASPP
Method: Compounds were profiled for MAGL inhibitory activity by measuring the enzymatic activity of MAGL by following the hydrolysis of 4-nitrophenylacetate resulting in 4-nitrophenol, which absorbs at 405-412 nm (G. G. Muccioli, G. Labar, D. M. Lambert, Chem. Bio. Chem. 2008, 9, 2704-2710). This assay is hereinafter abbreviated “4-NPA assay”.
The assay was carried out in 384 well assay plates (black with clear bottom, non-binding surface treated, Corning Ref. 3655) in a total volume of 40 μL. Compound dilutions were made in 100% DMSO (VWR Chemicals 23500.297) in a polypropylene plate in 3-fold dilution steps to give a final concentration range in the assay from 25 μM to 1.7 nM. 1 μL compound dilutions (100% DMSO) were added to 19 μL MAGL (recombinant wild-type) in assay buffer (50 mM TRIS (GIBCO, 15567-027), 1 mM EDTA (Fluka, 03690-100 mL)). The plate was shaked for 1 min at 2000 rpm (Variomag Teleshake) and then incubated for 15 min at RT. To start the reaction, 20 μL 4-Nitrophenlyacetate (Sigma N-8130) in assay buffer with 6% EtOH was added. The final concentrations in the assay were 1 nM MAGL and 300 μM 4-Nitrophenylacetate. After shaking (1 min, 2000 rpm) and 5 min incubation at RT, the absorbance at 405 nm was measured for a first time (Molecular Devices, SpectraMax Paradigm). A second measurement was then done after incubation for 80 min at RT. From the two measurements, the slope was calculated by subtracting the first from the second measurement.

MAGL = target: T2, MAGL (Homo sapiens, UniProt Q99685); test: 2-AG assay: MAGL inhibitory activity by hydrolysis of 2-arachidonoylglycerol to arachidonic acid, mass spectrometry; format: biochemical; conditions: 2-AG assay (values marked [b])
T2 sequence (Q99685 1-303): T1 sequence (Q99685 1-303)
How it was run: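 Human MAGL […] was preincubated 15 min at RT with compound ([…], 3-fold steps) in 50 mM Tris, 1 mM EDTA, 0.01% Tween. 2-AG (8 μM) was then added for 30 min at RT. Arachidonic acid was quantified by RapidFire SPE–triple quadrupole MS in negative ESI as its ratio to a d8-arachidonic acid standard.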

Row | SMILES | IC50 [1] [nM] | IC50 (MAGL) [nM]
1 | Cc1ccc2oc(N3CCN(C(=O)c4ccc5nc(-c6ccccc6)oc5c4)CC3)nc2n1 [Example 1, (4-(5-Methyloxazolo[4,5-b]pyridin-2-yl)piperazin-1-yl)(2-phenylbenzo[d]oxazol-6-yl)methanone] | 115 | –
2 | O=C(c1ccc2nc(-c3ccccc3)oc2c1)N1CCN(c2nc3ncccc3o2)CC1 [Example 2, (4-(oxazolo[4,5-b]pyridin-2-yl)piperazin-1-yl)(2-phenylbenzo[d]oxazol-6-yl)methanone] | 194 | –
3 | Cc1ccc2oc(N3CCN(C(=O)c4ccc5nc(N6CCCC6)oc5c4)CC3)nc2n1 [Example 3, (4-(5-methyloxazolo[4,5-b]pyridin-2-yl)piperazin-1-yl)(2-(pyrrolidin-1-yl)benzo[d]oxazol-6-yl)methanone] | 2330 | –
4 | Cc1ccc2oc(N3CCN(C(=O)c4ccc(-c5noc(C(C)(C)C)n5)cc4)CC3)nc2n1 [Example 4, (4-(5-(tert-butyl)-1,2,4-oxadiazol-3-yl)phenyl)(4-(5-methyloxazolo[4,5-b]pyridin-2-yl)piperazin-1-yl)methanone] | 27 | –
5 | Cc1ccc2oc(N3CCN(C(=O)c4ccc(-c5noc(CC(C)(C)C)n5)cc4)CC3)nc2n1 [Example 5, (4-(5-methyloxazolo[4,5-b]pyridin-2-yl)piperazin-1-yl)(4-(5-neopentyl-1,2,4-oxadiazol-3-yl)phenyl)methanone] | 9 | –
6 | Cc1ccc2oc(N3CCN(C(=O)c4ccc5nc(N6CC7(CCCC7)C6)oc5c4)CC3)nc2n1 [Example 6, (2-(2-azaspiro[3.4]octan-2-yl)benzo[d]oxazol-6-yl)(4-(5-methyloxazolo[4,5-b]pyridin-2-yl)piperazin-1-yl)methanone] | 25 | –
7 | Cc1ccc2oc(N3CCN(C(=O)c4ccc(-c5noc(C(C)(C)CO)n5)cc4)CC3)nc2n1 [Example 7, (4-(5-(1-hydroxy-2-methylpropan-2-yl)-1,2,4-oxadiazol-3-yl)phenyl)(4-(5-methyloxazolo[4,5-b]pyridin-2-yl)piperazin-1-yl)methanone] | 262 | –
8 | CC(C)(C)c1nc(-c2ccc(C(=O)N3CCN(c4nc5nccc(Cl)c5o4)CC3)cc2)no1 [Example 8, (4-(5-(tert-butyl)-1,2,4-oxadiazol-3-yl)phenyl)(4-(7-chlorooxazolo[4,5-b]pyridin-2-yl)piperazin-1-yl)methanone] | 247 | –
9 | CC(C)(C)Cc1nc(-c2ccc(C(=O)N3CCN(c4nc5nccc(Cl)c5o4)CC3)cc2)no1 [Example 9, (4-(7-chlorooxazolo[4,5-b]pyridin-2-yl)piperazin-1-yl)(4-(5-neopentyl-1,2,4-oxadiazol-3-yl)phenyl)methanone] | 27 | –
10 | CC(C)(C)Cc1nc(-c2ccc(C(=O)N3CCN(c4nc5nc(Cl)ccc5o4)CC3)cc2)no1 [Example 10, (4-(5-chlorooxazolo[4,5-b]pyridin-2-yl)piperazin-1-yl)(4-(5-neopentyl-1,2,4-oxadiazol-3-yl)phenyl)methanone] | 2 | –
11 | Cc1ccc2oc(N3CCN(C(=O)c4ccc(-c5noc(C(C)(C)CF)n5)cc4)CC3)nc2n1 [Example 11, (4-(5-(1-fluoro-2-methylpropan-2-yl)-1,2,4-oxadiazol-3-yl)phenyl)(4-(5-methyloxazolo[4,5-b]pyridin-2-yl)piperazin-1-yl)methanone] | 49 | –
12 | CC(C)(C)c1nc(-c2ccc(C(=O)N3CCN(c4nc5nc(Cl)ccc5o4)CC3)cc2)no1 [Example 12, (4-(5-(tert-butyl)-1,2,4-oxadiazol-3-yl)phenyl)(4-(5-chlorooxazolo[4,5-b]pyridin-2-yl)piperazin-1-yl)methanone] | 8 | –
13 | CC(C)(C)Cc1nc(-c2ccc(C(=O)N3CCN(c4nc5ncccc5o4)CC3)cc2)no1 [Example 13, (4-(5-neopentyl-1,2,4-oxadiazol-3-yl)phenyl)(4-(oxazolo[4,5-b]pyridin-2-yl)piperazin-1-yl)methanone] | 37 | –
14 | CC(C)(C)c1nc(-c2ccc(C(=O)N3CCN(c4nc5ncccc5o4)CC3)cc2)no1 [Example 14, (4-(5-(tert-butyl)-1,2,4-oxadiazol-3-yl)phenyl)(4-(oxazolo[4,5-b]pyridin-2-yl)piperazin-1-yl)methanone] | 128 | –
15 | CCC(CC)c1nc2ccc(C(=O)N3CCN(c4nc5nc(C)ccc5o4)CC3)cc2o1 [Example 15, [2-(1-ethylpropyl)-1,3-benzoxazol-6-yl]-[4-(5-methyloxazolo[4,5-b]pyridin-2-yl)piperazin-1-yl]methanone] | 352 | –
16 | Cc1ccc2oc(N3CCN(C(=O)c4cc(F)c(-c5nnn(CC(C)(C)C)n5)c(F)c4)CC3)nc2n1 [Example 299, [4-[2-(2,2-dimethylpropyl)tetrazol-5-yl]-3,5-difluoro-phenyl]-[4-(5-methyloxazolo[4,5-b]pyridin-2-yl)piperazin-1-yl]methanone] | – | 31
17 | CC(C)(C)Cn1nnc(-c2c(F)cc(C(=O)N3CCN(c4nc5nc(Cl)ccc5o4)CC3)cc2F)n1 [Example 300, [4-(5-chlorooxazolo[4,5-b]pyridin-2-yl)piperazin-1-yl]-[4-[2-(2,2-dimethylpropyl)tetrazol-5-yl]-3,5-difluoro-phenyl]methanone] | – | 10
18 | Cc1ccc2oc(N3CCN(C(=O)c4ccc(-c5nnn(CC(C)(C)C)n5)c(C)c4)CC3)nc2n1 [Example 301, [4-[2-(2,2-dimethylpropyl)tetrazol-5-yl]-3-methyl-phenyl]-[4-(5-methyloxazolo[4,5-b]pyridin-2-yl)piperazin-1-yl]methanone] | – | 3
19 | Cc1cc(C(=O)N2CCN(c3nc4nc(Cl)ccc4o3)CC2)ccc1-c1nnn(CC(C)(C)C)n1 [Example 302, [4-(5-chlorooxazolo[4,5-b]pyridin-2-yl)piperazin-1-yl]-[4-[2-(2,2-dimethylpropyl)tetrazol-5-yl]-3-methyl-phenyl]methanone] | – | 2
20 | Cc1ccc2oc(N3CCN(C(=O)c4ccc(-c5nnn(CC(C)(C)C)n5)c(F)c4)CC3)nc2n1 [Example 303, [4-[2-(2,2-dimethylpropyl)tetrazol-5-yl]-3-fluoro-phenyl]-[4-(5-methyloxazolo[4,5-b]pyridin-2-yl)piperazin-1-yl]methanone] | – | 7
21 | CC(C)(C)Cn1nnc(-c2ccc(C(=O)N3CCN(c4nc5nc(Cl)ccc5o4)CC3)cc2F)n1 [Example 304, [4-(5-chlorooxazolo[4,5-b]pyridin-2-yl)piperazin-1-yl]-[4-[2-(2,2-dimethylpropyl)tetrazol-5-yl]-3-fluoro-phenyl]methanone] | – | 4
22 | CC(C)(C)Cn1nnc(-c2ncc(C(=O)N3CCN(c4nc5nc(Cl)ccc5o4)CC3)cc2F)n1 [Example 306, [4-(5-chlorooxazolo[4,5-b]pyridin-2-yl)piperazin-1-yl]-[6-[2-(2,2-dimethylpropyl)tetrazol-5-yl]-5-fluoro-3-pyridyl]methanone] | – | 363
23 | Cc1ccc2oc(N3CCN(C(=O)c4cnc(-c5nnn(CC(C)(C)C)n5)c(F)c4)CC3)nc2n1 [Example 307, [6-[2-(2,2-dimethylpropyl)tetrazol-5-yl]-5-fluoro-3-pyridyl]-[4-(5-methyloxazolo[4,5-b]pyridin-2-yl)piperazin-1-yl]methanone] | – | 1130
24 | Cc1cc(C(=O)N2CCN(c3nc4nc(Cl)ccc4o3)CC2)cnc1-c1nnn(CC(C)(C)C)n1 [Example 308, [4-(5-chlorooxazolo[4,5-b]pyridin-2-yl)piperazin-1-yl]-[6-[2-(2,2-dimethylpropyl)tetrazol-5-yl]-5-methyl-3-pyridyl]methanone] | – | 111
25 | Cc1ccc2oc(N3CCN(C(=O)c4cnc(-c5nnn(CC(C)(C)C)n5)c(C)c4)CC3)nc2n1 [Example 309, [6-[2-(2,2-dimethylpropyl)tetrazol-5-yl]-5-methyl-3-pyridyl]-[4-(5-methyloxazolo[4,5-b]pyridin-2-yl)piperazin-1-yl]methanone] | – | 51
26 | COc1cc(C(=O)N2CCN(c3nc4nc(C)ccc4o3)CC2)cnc1-c1nnn(CC(C)(C)C)n1 [Example 310, [6-[2-(2,2-dimethylpropyl)tetrazol-5-yl]-5-methoxy-3-pyridyl]-[4-(5-methyloxazolo[4,5-b]pyridin-2-yl)piperazin-1-yl]methanone] | – | 167
27 | COc1cc(C(=O)N2CCN(c3nc4nc(Cl)ccc4o3)CC2)cnc1-c1nnn(CC(C)(C)C)n1 [Example 311, [4-(5-chlorooxazolo[4,5-b]pyridin-2-yl)piperazin-1-yl]-[6-[2-(2,2-dimethylpropyl)tetrazol-5-yl]-5-methoxy-3-pyridyl]methanone] | – | 61
